Measured values reported in PubChem BioAssay AID2060485 (Molecular Pharmacology Branch, DTP, NCI, 2025).

System: A375 multi-cell spheroids with HUVEC/MSC, viability
Assay: Anticancer human tumor A375 cell line growth inhibition [GQUAD];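 note: spheroids exposed to compounds for seven days before readout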
Conditions: for IC50: curve of first compound; for viability, T/C: stronger effect = lower value
Procedure, shortened: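 Multi-cell-type spheroids of tumor cells with HUVEC and mesenchymal stem cells, treated with drug combinations. Concentrations descend in half-log steps from near clinical Cmax, or from 10 microM where Cmax is unknown; viability read-out.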

[1] = second compound 0.0316 µM, first compound 0.0316 µM
[2] = second compound 0.0316 µM, first compound 0.1 µM
[3] = second compound 0.0316 µM, first compound 0.316 µM
[4] = second compound 0.0316 µM, first compound 1 µM
[5] = second compound 0.0316 µM, first compound 3.16 µM
[6] = second compound 0.0316 µM, first compound 10 µM
[7] = second compound 0.1 µM, first compound 0.0316 µM
[8] = second compound 0.1 µM, first compound 0.1 µM
[9] = second compound 0.1 µM, first compound 0.316 µM
[10] = second compound 0.1 µM, first compound 1 µM
[11] = second compound 0.1 µM, first compound 3.16 µM
[12] = second compound 0.1 µM, first compound 10 µM
[13] = second compound 0.316 µM, first compound 0.0316 µM
[14] = second compound 0.316 µM, first compound 0.1 µM
[15] = second compound 0.316 µM, first compound 0.316 µM
[16] = second compound 0.316 µM, first compound 1 µM
[17] = second compound 0.316 µM, first compound 3.16 µM
[18] = second compound 0.316 µM, first compound 10 µM
[19] = second compound 1 µM, first compound 0.0316 µM
[20] = second compound 1 µM, first compound 0.1 µM
[21] = second compound 1 µM, first compound 0.316 µM
[22] = second compound 1 µM, first compound 1 µM
[23] = second compound 1 µM, first compound 3.16 µM
[24] = second compound 1 µM, first compound 10 µM
[25] = second compound 3.16 µM, first compound 0.0316 µM
[26] = second compound 3.16 µM, first compound 0.1 µM
[27] = second compound 3.16 µM, first compound 0.316 µM
[28] = second compound 3.16 µM, first compound 1 µM
[29] = second compound 3.16 µM, first compound 3.16 µM
[30] = second compound 3.16 µM, first compound 10 µM
[31] = second compound 10 µM, first compound 0.0316 µM
[32] = second compound 10 µM, first compound 0.1 µM
[33] = second compound 10 µM, first compound 0.316 µM
[34] = second compound 10 µM, first compound 1 µM
[35] = second compound 10 µM, first compound 3.16 µM
[36] = second compound 10 µM, first compound 10 µM

CC(C)(O)C1CCC(Nc2ccc3ncc(-c4cccc(C(F)(F)F)c4)n3n2)CC1 (stereo unspecified) + Cc1cnc(CNC(=O)c2c(=O)c3ccc(N4CCCN(C)CC4)nc3n3c2sc2ccccc23)cn1
IC50 (second compound 0.0316 µM): > 10000 nM | IC50 (second compound 0.1 µM): 1730 nM | IC50 (second compound 0.316 µM): 124 nM | IC50 (second compound 1 µM): < 31.6 nM | IC50 (second compound 3.16 µM): < 31.6 nM | IC50 (second compound 10 µM): < 31.6 nM | viability, T/C [1]: 104% | viability, T/C [2]: 110% | viability, T/C [3]: 103% | viability, T/C [4]: 96.1% | viability, T/C [5]: 65.3% | viability, T/C [6]: 91.2% | viability, T/C [7]: 85.9% | viability, T/C [8]: 79.5% | viability, T/C [9]: 78.2% | viability, T/C [10]: 54.5% | viability, T/C [11]: 41% | viability, T/C [12]: 49.1% | viability, T/C [13]: 55% | viability, T/C [14]: 53.4% | viability, T/C [15]: 45.5% | viability, T/C [16]: 38.8% | viability, T/C [17]: 31.7% | viability, T/C [18]: 29.7% | viability, T/C [19]: 38.5% | viability, T/C [20]: 40.9% | viability, T/C [21]: 38% | viability, T/C [22]: 31.4% | viability, T/C [23]: 27.6% | viability, T/C [24]: 25% | viability, T/C [25]: 32.5% | viability, T/C [26]: 35.4% | viability, T/C [27]: 33% | viability, T/C [28]: 26.3% | viability, T/C [29]: 17.5% | viability, T/C [30]: 23.8% | viability, T/C [31]: 29.4% | viability, T/C [32]: 27.5% | viability, T/C [33]: 28.9% | viability, T/C [34]: 21.2% | viability, T/C [35]: 8.8% | viability, T/C [36]: 0.26%

COc1ncnc(C2CC2)c1-c1ncc2cnn(Cc3ccc(-c4nc(C(F)(F)F)cn4C(C)C)cc3)c2n1 + Cc1cnc(CNC(=O)c2c(=O)c3ccc(N4CCCN(C)CC4)nc3n3c2sc2ccccc23)cn1
IC50 (second compound 0.0316 µM): > 10000 nM | IC50 (second compound 0.1 µM): > 10000 nM | IC50 (second compound 0.316 µM): < 31.6 nM | IC50 (second compound 1 µM): < 31.6 nM | IC50 (second compound 3.16 µM): < 31.6 nM | IC50 (second compound 10 µM): < 31.6 nM | viability, T/C [1]: 101% | viability, T/C [2]: 110% | viability, T/C [3]: 102% | viability, T/C [4]: 103% | viability, T/C [5]: 104% | viability, T/C [6]: 111% | viability, T/C [7]: 69.3% | viability, T/C [8]: 73.5% | viability, T/C [9]: 57.3% | viability, T/C [10]: 61.4% | viability, T/C [11]: 70.3% | viability, T/C [12]: 61.2% | viability, T/C [13]: 49.3% | viability, T/C [14]: 43.6% | viability, T/C [15]: 47.1% | viability, T/C [16]: 49% | viability, T/C [17]: 46.2% | viability, T/C [18]: 47.7% | viability, T/C [19]: 36.2% | viability, T/C [20]: 35% | viability, T/C [21]: 34.5% | viability, T/C [22]: 38.5% | viability, T/C [23]: 33.5% | viability, T/C [24]: 33.5% | viability, T/C [25]: 29.6% | viability, T/C [26]: 37.2% | viability, T/C [27]: 30.9% | viability, T/C [28]: 33.5% | viability, T/C [29]: 31.7% | viability, T/C [30]: 33.9% | viability, T/C [31]: 30% | viability, T/C [32]: 26% | viability, T/C [33]: 27.6% | viability, T/C [34]: 26.4% | viability, T/C [35]: 32.7% | viability, T/C [36]: 31.9%

Cc1[nH]c2ccccc2c1CCNCc1ccc(/C=C/C(=O)NO)cc1 + Cc1cnc(CNC(=O)c2c(=O)c3ccc(N4CCCN(C)CC4)nc3n3c2sc2ccccc23)cn1
IC50 (second compound 0.0316 µM): 112 nM | IC50 (second compound 0.1 µM): 48.8 nM | IC50 (second compound 0.316 µM): 35.9 nM | IC50 (second compound 1 µM): < 0.999 nM | IC50 (second compound 3.16 µM): < 0.999 nM | IC50 (second compound 10 µM): < 0.999 nM | viability, T/C (second compound 0.0316 µM, first compound 0.000999 µM): 98.2% | viability, T/C (second compound 0.0316 µM, first compound 0.00316 µM): 103% | viability, T/C (second compound 0.0316 µM, first compound 0.00999 µM): 123% | viability, T/C [1]: 113% | viability, T/C (second compound 0.0316 µM, first compound 0.0999 µM): 54.4% | viability, T/C [3]: 10.3% | viability, T/C (second compound 0.1 µM, first compound 0.000999 µM): 74.6% | viability, T/C (second compound 0.1 µM, first compound 0.00316 µM): 69.7% | viability, T/C (second compound 0.1 µM, first compound 0.00999 µM): 74% | viability, T/C [7]: 60.5% | viability, T/C (second compound 0.1 µM, first compound 0.0999 µM): 31.7% | viability, T/C [9]: 8.85% | viability, T/C (second compound 0.316 µM, first compound 0.000999 µM): 54.1% | viability, T/C (second compound 0.316 µM, first compound 0.00316 µM): 55.5% | viability, T/C (second compound 0.316 µM, first compound 0.00999 µM): 49% | viability, T/C [13]: 53.9% | viability, T/C (second compound 0.316 µM, first compound 0.0999 µM): 25.2% | viability, T/C [15]: 8.14% | viability, T/C (second compound 1 µM, first compound 0.000999 µM): 37.2% | viability, T/C (second compound 1 µM, first compound 0.00316 µM): 42.2% | viability, T/C (second compound 1 µM, first compound 0.00999 µM): 39.4% | viability, T/C [19]: 35.4% | viability, T/C (second compound 1 µM, first compound 0.0999 µM): 18.7% | viability, T/C [21]: 1.63% | viability, T/C (second compound 3.16 µM, first compound 0.000999 µM): 35.6% | viability, T/C (second compound 3.16 µM, first compound 0.00316 µM): 30.9% | viability, T/C (second compound 3.16 µM, first compound 0.00999 µM): 35.5% | viability, T/C [25]: 34.1% | viability, T/C (second compound 3.16 µM, first compound 0.0999 µM): 13.6% | viability, T/C [27]: 0.08% | viability, T/C (second compound 10 µM, first compound 0.000999 µM): 30.9% | viability, T/C (second compound 10 µM, first compound 0.00316 µM): 25.6% | viability, T/C (second compound 10 µM, first compound 0.00999 µM): 29.1% | viability, T/C [31]: 25% | viability, T/C (second compound 10 µM, first compound 0.0999 µM): 8.95% | viability, T/C [33]: 0.14%
